Measurements published in ChEMBL document CHEMBL3885881, “DrugMatrix”.

Organism: Rattus norvegicus
Test: DrugMatrix - Regimen: Daily Repeat
Type: toxicity, organism-based, Sprague-Dawley
Set-up: regimen Daily Repeat, gender Male, age 6-8 weeks
Conditions: in vivo, ip, 0 mg/kg, route intraperitoneal, dose level Control, vehicle 100 % SALINE; for ABSOLUTE BASOPHIL / ABSOLUTE EOSINOPHIL / ABSOLUTE LYMPHOCYTE / ABSOLUTE MONOCYTE / ABSOLUTE SEGMENTED NEUTROPHIL / BASOPHIL / EOSINOPHIL / ERYTHROCYTE COUNT / HEMATOCRIT / HEMOGLOBIN / LEUKOCYTE COUNT / LYMPHOCYTE / MEAN CORPUSCULAR HEMOGLOBIN / MEAN CORPUSCULAR HEMOGLOBIN CONCENTRATION / MEAN CORPUSCULAR VOLUME / MONOCYTE / NEUTROPHIL / PLATELET COUNT: tissue Blood
[1] = 120 h, tissue Plasma, time 5 day
[2] = […], tissue Plasma, time 14 day
[3] = […], tissue Plasma, time 28 day

## TRANSPLATIN
120 h, time 5 day
  ABSOLUTE BASOPHIL: 32 cells/µL
  ABSOLUTE EOSINOPHIL: 110 cells/µL
  ABSOLUTE LYMPHOCYTE: 6630 cells/µL
  ABSOLUTE MONOCYTE: 140 cells/µL
  ABSOLUTE SEGMENTED NEUTROPHIL: 1170 cells/µL
  BASOPHIL: 0.38%
  EOSINOPHIL: 1.28%
  ERYTHROCYTE COUNT: 7.45 x10E6/uL
  HEMATOCRIT: 45.74%
  HEMOGLOBIN: 14.72 G/DL
  LEUKOCYTE COUNT: 8.11 x10E3/uL
  LYMPHOCYTE: 81.3%
  MEAN CORPUSCULAR HEMOGLOBIN: 19.76 pg
  MEAN CORPUSCULAR HEMOGLOBIN CONCENTRATION: 32.16 G/DL
  MEAN CORPUSCULAR VOLUME: 61.38 fL
  MONOCYTE: 1.76%
  NEUTROPHIL: 14.9%
  PLATELET COUNT: 1322.4 x10E3/uL
[1]
  ALANINE AMINOTRANSFERASE: 25.8 u/L
  ALBUMIN: 3.64 G/DL
  ASPARTATE AMINOTRANSFERASE: 81.4 u/L
  BLOOD UREA NITROGEN: 14.4 mg/dL
  CHOLESTEROL: 69.2 mg/dL
  CREATINE PHOSPHOKINASE: 303.2 u/L
  CREATININE: 0.56 mg/dL
  GLUCOSE: 125.4 mg/dL
  LACTATE DEHYDROGENASE: 105.4 u/L
  LIPASE: 22.4 u/L
  POTASSIUM: 5.52 MEQ/L
  SODIUM: 147 MEQ/L
  TOTAL BILIRUBIN: 0.2 mg/dL
  TOTAL PROTEIN: 6.1 G/DL
  URIC ACID: 1.06 mg/dL
[…], time 14 day
  ABSOLUTE BASOPHIL: 130 cells/µL
  ABSOLUTE EOSINOPHIL: 140 cells/µL
  ABSOLUTE LYMPHOCYTE: 13500 cells/µL
  ABSOLUTE MONOCYTE: 400 cells/µL
  ABSOLUTE SEGMENTED NEUTROPHIL: 2330 cells/µL
  BASOPHIL: 0.72%
  EOSINOPHIL: 0.86%
  ERYTHROCYTE COUNT: 7.74 x10E6/uL
  HEMATOCRIT: 45.98%
  LEUKOCYTE COUNT: 16.61 x10E3/uL
  LYMPHOCYTE: 81.34%
  MEAN CORPUSCULAR HEMOGLOBIN: 18 pg
  MEAN CORPUSCULAR HEMOGLOBIN CONCENTRATION: 30.22 G/DL
  MEAN CORPUSCULAR VOLUME: 59.4 fL
  MONOCYTE: 2.46%
  NEUTROPHIL: 14.14%
  PLATELET COUNT: 1445.5 x10E3/uL
[…], time 28 day
  ABSOLUTE BASOPHIL: 91 cells/µL
  ABSOLUTE EOSINOPHIL: 110 cells/µL
  ABSOLUTE LYMPHOCYTE: 9910 cells/µL
  ABSOLUTE MONOCYTE: 210 cells/µL
  ABSOLUTE SEGMENTED NEUTROPHIL: 1560 cells/µL
  BASOPHIL: 0.77%
  EOSINOPHIL: 0.92%
  ERYTHROCYTE COUNT: 8.21 x10E6/uL
  HEMATOCRIT: 47.53%
  HEMOGLOBIN: 15.65 G/DL
  LEUKOCYTE COUNT: 11.91 x10E3/uL
  LYMPHOCYTE: 83.34%
  MEAN CORPUSCULAR HEMOGLOBIN: 19.07 pg
  MEAN CORPUSCULAR HEMOGLOBIN CONCENTRATION: 32.93 G/DL
  MEAN CORPUSCULAR VOLUME: 57.9 fL
  MONOCYTE: 1.68%
  NEUTROPHIL: 12.97%
  PLATELET COUNT: 1323.8 x10E3/uL
[2]
  ALANINE AMINOTRANSFERASE: 31.6 u/L
  ALBUMIN: 3.66 G/DL
  ALKALINE PHOSPHATASE: 228.6 u/L
  ASPARTATE AMINOTRANSFERASE: 79.6 u/L
  BLOOD UREA NITROGEN: 11.2 mg/dL
  CHLORIDE: 107 MEQ/L
  CHOLESTEROL: 57 mg/dL
  CREATININE: 0.5 mg/dL
  GLUCOSE: 124.4 mg/dL
  LACTATE DEHYDROGENASE: 106.4 u/L
  LIPASE: 24.4 u/L
  PHOSPHORUS: 10.52 mg/dL
  POTASSIUM: 6.34 MEQ/L
  SODIUM: 149.2 MEQ/L
  TOTAL BILIRUBIN: 0.2 mg/dL
  TOTAL PROTEIN: 6.48 G/DL
  URIC ACID: 0.94 mg/dL
[3]
  ALANINE AMINOTRANSFERASE: 30 u/L
  ALBUMIN: 3.71 G/DL
  ALKALINE PHOSPHATASE: 186.8 u/L
  ASPARTATE AMINOTRANSFERASE: 78.2 u/L
  BLOOD UREA NITROGEN: 14.2 mg/dL
  CHOLESTEROL: 44.9 mg/dL
  CREATINE PHOSPHOKINASE: 334.3 u/L
  CREATININE: 0.6 mg/dL
  GLUCOSE: 147.2 mg/dL
  LACTATE DEHYDROGENASE: 123.1 u/L
  LIPASE: 9.6 u/L
  PHOSPHORUS: 10.01 mg/dL
  POTASSIUM: 6.57 MEQ/L
  SODIUM: 149.5 MEQ/L
  TOTAL BILIRUBIN: 0.21 mg/dL
  TOTAL PROTEIN: 6.66 G/DL
  URIC ACID: 1.26 mg/dL
